Consider 15 molecules from patent publication US12208110B2 (priority 2020, dated 2025).

Like-named read-outs stand apart in the source and are kept apart here.

Series [1] deals with RSV-Fluc (Recombinant Respiratory Syncytial virus strain A2 containing the firefly luciferase reporter). Kind of series: microbe, parasite or virus in culture. It counts as cell-based. Particulars: read-out: RSV-Fluc EC50 (nM, NHBE).
In series [2] the test system is MT-4 cells. Kind of series: MT4 cytotoxicity analysis (CellTiter-Glo). In kind it is cell-based. In a few lines:
(§1)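 MT-4 cells were exposed in quadruplicate to 3-fold serial compound dilutions (DMSO stocks 2.5 uM to 10 mM) for five days at 37 °C. Viability was read by CellTiter-Glo luminescence.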

Series [3] has as its system SARS-CoV-2. Briefly: microbe, parasite or virus in culture. It counts as cell-based.
Details of series [4]: species or system Sprague-Dawley (SD) rats. The settings on record: male, Sprague-Dawley, rat, in vivo, po, 10 mg/kg. On the procedure:
Example 80: Rat Lung Phosphate (Monophosphate, Diphosphate and Triphosphate) Data with Exemplary Compounds
Measurement of GS-441524 (compound A below) and its phosphorylated metabolites (compounds B, C, and D below) in lung tissues was performed according to the following protocol.
The concentrations of GS-441524 (A) and its phosphorylated metabolites (B, C, and D) were determined in Sprague-Dawley (SD) rats following oral gavage administration of the test compounds. The in-life phase of studies was conducted at Covance Laboratories (Madison, WI). Animals were housed and handled in accordance with the Guide for the Care and Use of Laboratory Animals, Institute of Laboratory Animal Resources. The protocols were reviewed and approved by the Institutional Animal Care and Use Committees (IACUC). Male SD rats weighing approximately 0.3 kg were used for in-life portion of the studies. The animals were fasted overnight prior to the test compound administration and up to 4 hours post-dose. The animals were administered with the test compound at 5, 8, 10 or 20 mg/kg via oral gavage (3 rats per group). The aqueous formulation contains ethanol, dimethyl sulfoxide, Kolliphor HS-15, Labrasol, and propylene glycol. Approximately 0.5 grams of lung tissue samples were collected from each animal and analyzed by LC/MS/MS for determination of the concentrations of GS-441524 and its phosphorylated metabolites. For LC-MS/MS analysis, tissue samples were homogenized and extracted with 4-fold volume of 70% methanol containing 0.1% potassium hydroxide, 67 mM ethylenediamine tetraacetic acid, and internal standard. Approximately 200 μL aliquot of the homogenate was filtered using a 96-well filter plate (0.2 μm polypropylene; Agilent Captiva, Santa Clara, CA). The filtrate was evaporated to dryness and reconstituted with equal volume of 1 mM ammonium phosphate buffer (pH 7). The samples were then analyzed on a Sciex 6500+ LC-MS/MS instrument (Redwood City, CA). Analytes were eluted on a […] 50×2.0 mm Phenomenex Luna C18 HST column (Torrance, CA) using mobile phases containing 3 mM ammonium formate and 10 mM dimethylhexylamine and a linear gradient from 9% to 50% acetonitrile at a flow rate of 360 μL/min. Data acquisition and processing were accomplished using Sciex Analyst® Software. Total summed levels of GS-441524 phosphorylate metabolites (B+C+D) in lung tissues were generated from the sum of GS-441524 mono-, di- and tri-phosphate (B, C, and D respectively).

Series [5] is described as follows: MT4 cytotoxicity analysis (CellTiter-Glo). It counts as cell-based. The settings on record: human, MT4 CC50 (nM). In outline: as §1
(In general: Cellular ATP, detected with luciferase, serves as a proxy for viable cell number.)

[6] abbreviates: human respiratory syncytial virus, NHBE, 72 h.
The mark [7] stands for this setting: Severe acute respiratory syndrome coronavirus 2, 48 h.
Where [8] appears, read: MT-4 cells, five days, CellTiter-Glo, read-out: MT4 CC50.

In general, EC50 refers to the concentration that produces a half-maximal response. Usually CC50 stands for the concentration giving 50% cytotoxicity. `CCCCCCCCCCCCCCCCCCOC[C@@H](OCc1ccccc1)C(C)OP(=O)(O)OC[C@H]1O[C@@](C#N)(c2ccc3c(N)ncnn23)[C@H](O)[C@@H]1O` (single isomer, unassigned) [Example 12]: the EC50 in series [1] (setting [6]) was 240 nM; in series [3] (setting [7]), 8.4 µM. Moreover, the CC50 in series [2] (human, 5 days) came out at 10 µM.
Consider `CCCCCCCCCCCCCCCCCCOC[C@@H](OCc1ccccc1)C(C)OP(=O)(O)OC[C@H]1O[C@@](C#N)(c2ccc3c(N)ncnn23)[C@H](O)[C@@H]1O` (single isomer, unassigned) [Example 13], for which the EC50 in series [1] (NHBE cells, RSV-Fluc MOI 0.1, three days, luciferase readout) came to 240 nM; in series [3] it was 9.5 µM. Further, in series [2] (human, 5 days), the cytotoxic concentration (CC50) is 29 µM.
As for `CCCCCCCCCCCCCCCCCCOC[C@H](COP(=O)(O)OC[C@H]1O[C@@](C#N)(c2ccc3c(N)ncnn23)[C@H](O)[C@@H]1O)N(C)Cc1ccc(F)c(Cl)c1` [Example 3, ((2R,3S,4R,5R)-5-(4-aminopyrrolo[2,1-f][1,2,4]triazin-7-yl)-5-cyano-3,4-dihydroxytetrahydrofuran-2-yl)methyl ((R)-2-((3-chloro-4-fluorobenzyl)(methyl)amino)-3-(octadecyloxy)propyl) hydrogen phosphate], the values for the concentration for a half-maximal effect (EC50) in series [1] (setting [6]) and in series [3] (setting [7]) were 350 nM and 2.3 µM, respectively. For the same molecule, the “Total Lung Phosphate Level (monophosphate + diphosphate + triphosphate, nmol/g)” value (shortened to “Total Lung Phosphate Level”) in series [4] came out at 0.6 nmol/g. The cytotoxic concentration (CC50) at 5 days in series [5] worked out at 5700 nM.
Turning to `CCCCCCCCCCCCCCCCCCOC[C@H](COP(=O)(O)OC[C@H]1O[C@@](C#N)(c2ccc3c(N)ncnn23)[C@H](O)[C@@H]1O)N(C)Cc1cc(F)cc(C#N)c1` [Example 6, ((2R,3S,4R,5R)-5-(4-aminopyrrolo[2,1-f][1,2,4]triazin-7-yl)-5-cyano-3,4-dihydroxytetrahydrofuran-2-yl)methyl ((R)-2-((3-cyano-5-fluorobenzyl)(methyl)amino)-3-(octadecyloxy)propyl) hydrogen phosphate], the EC50 was 570 nM in series [1] (setting [6]) and 10 µM in series [3] (setting [7]). In series [2] (human, 5 days), this molecule displayed a CC50 of 50 µM.
On the same counts, the results for `CCCCCCCCCCCCCCCCCCOC[C@H](COP(=O)(O)OC[C@H]1O[C@@](C#N)(c2ccc3c(N)ncnn23)[C@H](O)[C@@H]1O)OC(=O)c1ccccc1` [Example 17, (2R)-1-(((((2R,3S,4R,5R)-5-(4-aminopyrrolo[2,1-f][1,2,4]triazin-7-yl)-5-cyano-3,4-dihydroxytetrahydrofuran-2-yl)methoxy)(hydroxy)phosphoryl)oxy)-3-(octadecyloxy)propan-2-yl benzoate] are 120 nM, 0.89 µM and 50 µM.
For `CCCCCCCCCOCCCOP(=O)(O)OC[C@H]1O[C@@](C#N)(c2ccc3c(N)ncnn23)[C@H](O)[C@@H]1O` [Example 25, ((2R,3S,4R,5R)-5-(4-Aminopyrrolo[2,1-f][1,2,4]triazin-7-yl)-5-cyano-3,4-dihydroxytetrahydrofuran-2-yl)methyl (3-(nonyloxy)propyl) hydrogen phosphate], the figures for the EC50 in series [1] (setting [6]) and in series [3] (setting [7]) were 5000 nM and 10 µM, respectively. The CC50 in series [2] (setting [8]) amounted to 50 µM.
The like results for `CCCCCCCCOCCOP(=O)(O)OC[C@H]1O[C@@](C#N)(c2ccc3c(N)ncnn23)[C@H](O)[C@@H]1O` [Example 26, ((2R,3S,4R,5R)-5-(4-Aminopyrrolo[2,1-f][1,2,4]triazin-7-yl)-5-cyano-3,4-dihydroxytetrahydrofuran-2-yl)methyl (2-(octyloxy)ethyl) hydrogen phosphate] were, in that order, 5000 nM, 10 µM and 50 µM.
As for `CCCCCCCCCCCOCCOP(=O)(O)OC[C@H]1O[C@@](C#N)(c2ccc3c(N)ncnn23)[C@H](O)[C@@H]1O` [Example 27, ((2R,3S,4R,5R)-5-(4-Aminopyrrolo[2,1-f][1,2,4]triazin-7-yl)-5-cyano-3,4-dihydroxytetrahydrofuran-2-yl)methyl (2-(undecyloxy)ethyl) hydrogen phosphate], the EC50 in series [1] (setting [6]) is 5000 nM; in series [3] (setting [7]), 10 µM. Besides, the CC50 in series [2] (setting [8]) came out at 50 µM.
Consider `CCCCCCCCCCCCCCCCCCOC[C@H](COP(=O)(O)OC[C@H]1O[C@@](C#N)(c2ccc3c(N)ncnn23)[C@H](O)[C@@H]1O)NC(=O)c1ccccc1` [Example 30, ((2R,3S,4R,5R)-5-(4-aminopyrrolo[2,1-f][1,2,4]triazin-7-yl)-5-cyano-3,4-dihydroxytetrahydrofuran-2-yl)methyl ((R)-2-benzamido-3-(octadecyloxy)propyl) hydrogen phosphate], for which the half-maximal effective concentration (EC50) in series [1] (setting [6]) was determined as 130 nM; in series [3] (setting [7]), 8.3 µM. In series [2] (human, 5 days), this molecule gave a CC50 of 50 µM.
Regarding `CCCCCCCCCCCCCCCCCCOC[C@H](COP(=O)(O)OC[C@H]1O[C@@](C#N)(c2ccc3c(N)ncnn23)[C@H](O)[C@@H]1O)Oc1ccccc1C(=O)O` [Example 38, 2-(((2R)-1-(((((2R,3S,4R,5R)-5-(4-aminopyrrolo[2,1-f][1,2,4]triazin-7-yl)-5-cyano-3,4-dihydroxytetrahydrofuran-2-yl)methoxy)(hydroxy)phosphoryl)oxy)-3-(octadecyloxy)propan-2-yl)oxy)benzoic acid], the EC50 in series [1] (setting [6]) turned out to be 160 nM. Also, in series [2] (human, 5 days), the CC50 came to 50 µM.
As for `CCCCCCCCCCCCCCCCCCOC[C@H](COP(=O)(O)OC[C@H]1O[C@@](C#N)(c2ccc3c(N)ncnn23)[C@H](O)[C@@H]1O)OCc1cc(OC)c(C#N)c(OC)c1` [Example 55, ((2R,3S,4R,5R)-5-(4-aminopyrrolo[2,1-f][1,2,4]triazin-7-yl)-5-cyano-3,4-dihydroxytetrahydrofuran-2-yl)methyl ((R)-2-((4-cyano-3,5-dimethoxybenzyl)oxy)-3-(octadecyloxy)propyl) hydrogen phosphate], in series [1] (setting [6]), the half-maximal effective concentration (EC50) came to 24 nM. The “Total Lung Phosphate Level” value in series [4] was determined as 2.1 nmol/g. For the same molecule, half-maximal cytotoxicity in series [5] (CC50 at 5 days) was put at 270 nM.
For `CCCCCCCCCCCCCCCCCCOC[C@H](COP(=O)(O)OC[C@H]1O[C@@](C#N)(c2ccc3c(N)ncnn23)[C@H](O)[C@@H]1O)NC(=O)c1cccc(C#N)c1` [Example 57, ((2R,3S,4R,5R)-5-(4-aminopyrrolo[2,1-f][1,2,4]triazin-7-yl)-5-cyano-3,4-dihydroxytetrahydrofuran-2-yl)methyl ((R)-2-(3-cyanobenzamido)-3-(octadecyloxy)propyl) hydrogen phosphate], the EC50 in series [1] (setting [6]) came to 330 nM; in series [3] (setting [7]), 4.9 µM. This molecule also gave a CC50 in series [2] (human, 5 days) of 50 µM.
The like results for `CCCCCCCCCCCCSCCCOP(=O)(O)OC[C@H]1O[C@@](C#N)(c2ccc3c(N)ncnn23)[C@H](O)[C@@H]1O` [Example 63, [(2R,3S,4R,5R)-5-(4-Aminopyrrolo[2,1-f][1,2,4]triazin-7-yl)-5-cyano-3,4-dihydroxy-tetrahydrofuran-2-yl]methyl 3-dodecylsulfanylpropyl hydrogen phosphate] were, in that order, 470 nM, 10 µM and 50 µM.
The like results for `CCCCCCCCCCCCCCCCCCOC[C@H](CO[P@@](=O)(S)OC[C@H]1O[C@@](C#N)(c2ccc3c(N)ncnn23)[C@H](O)[C@@H]1O)OCc1ccccc1` [Example 67, O-(((2R,3S,4R,5R)-5-(4-aminopyrrolo[2,1-f][1,2,4]triazin-7-yl)-5-cyano-3,4-dihydroxytetrahydrofuran-2-yl)methyl) O—((R)-2-(benzyloxy)-3-(octadecyloxy)propyl) O-hydrogen (R)-phosphorothioate] were, in that order, 190 nM, 0.12 µM and 26 µM.
`CCCCCCCCCCCCCCCCCCOC[C@H](COP(=O)(O)OC[C@H]1O[C@@](C#N)(c2ccc3c(N)ncnn23)[C@H](O)[C@@H]1O)OCc1ccccc1` [Reference Compound, reference compound]: the “Total Lung Phosphate Level” value in series [4] was found to be 0.5 nmol/g.
